2 molecules from patent publication US20230142739A1, “PROTEIN-PROTEIN INTERACTION STABILIZERS” (The Regents of the University of California, priority 2020, published 2023) can be followed below.

Format in all cases: binding
Test [1] has as its target T1, 14-3-3/Pin1_72 complex (Homo sapiens, UniProt P61981).
T1 construct: the full length 14-3-3γ was dialysis against 25 mM HEPES pH 7.5; made in house; host or cells: E. coli BL21(DE3), pPROEX HTb
Put plainly: Cooperativity analysis, 14-3-3 titrations at varied constant fragment concentration. An excerpt: Cooperativity in ternary complex formation. In contrast to PPI inhibition, where affinity to one of the protein pockets is the driving force for drug development, design of molecular glues is driven by cooperative ternary complex formation. Both CC50 and SF values are concentration dependent values and might differ based on assay design. […] Cooperative complex formation is often accompanied by structural changes of the interface of a complex which translates to increased stability of the ternary com-plex. In order to assess cooperativity of the ternary complex, fragments 13, 23, 27 and 28 were selected for cooper-activity analysis. The α-factor of the fragments were determined using 14-3-3 titrations in the presence of varied, but constant concentration of fragment in a dose-dependent manner. […] Further, the interval of change in stabilization further describes the systems cooperative behaviour.
However, at higher concentration regimes significant assay interference was observed, probably due to compound aggregation. Fragments 23, 27 and 28 all reached saturation or approached saturation enabling accurate determination of α-factor. […] KD remains constant also at higher concentrations of FC-A, indicating non-specific effects.

For test [2], the target named is T2, C-Raf peptide/14-3-3 (Homo sapiens, UniProt P61981).
T2 construct: the full length 14-3-3γ was dialysis against 25 mM HEPES pH 7.5; made in house; host or cells: E. coli BL21(DE3), pPROEX HTb
Put plainly: Selectivity screening FA, C-Raf peptide. The following applies: 100 μM fragment. From the text:
(§1) Selectivity screening of covalent fragments. Drugging the hub protein 14-3-3 raises the challenge of selectivity. We hypothesized that the high level of cooperative behavior for 14-3-3/Pin1_72/28 complex is a function of the unique functionality and topology of the interface, specifically the +1 and +3 amino acid of Pin1_72 with the covalent fragment. We further rationalized that this cooperativity would likely translate to high selectivity. To test this hypothesis, fragments 13, 27 and 28 were screened at a single fragment concentration (100 μM) against a panel of 13 peptides as diverse representatives of 14-3-3 client proteins, differing in size and hydrophobicity of the +1 amino acid (FIG. 22A).
(§2) Fluorescence Anisotropy (FA) Assays.

Test [3] concerns the target T3, B-Raf_729 peptide/14-3-3 (Homo sapiens, UniProt P61981).
T3 construct: the full length 14-3-3γ was dialysis against 25 mM HEPES pH 7.5; made in house; host or cells: E. coli BL21(DE3), pPROEX HTb
Description: Selectivity screening FA, B-Raf_729 peptide. The conditions noted are these: 100 μM fragment.
From the text: as §1, §2

For test [4], the target named is T4, TBC1D237 peptide/14-3-3 (Homo sapiens, UniProt P61981).
T4 construct: the full length 14-3-3γ was dialysis against 25 mM HEPES pH 7.5; made in house; host or cells: E. coli BL21(DE3), pPROEX HTb
Put plainly: Selectivity screening FA, TBC1D237 peptide. The following applies: 100 μM fragment.
From the text: as §1, §2

Test [5] deals with T5, ERRγ_179 peptide/14-3-3 (Homo sapiens, UniProt P61981).
T5 construct: the full length 14-3-3γ was dialysis against 25 mM HEPES pH 7.5; made in house; host or cells: E. coli BL21(DE3), pPROEX HTb
Put plainly: Selectivity screening FA, ERRγ_179 peptide. The following applies: 100 μM fragment.
From the text: as §1, §2

Test [6] deals with T6, Mypt1_472 peptide/14-3-3 (Homo sapiens, UniProt P61981).
T6 construct: the full length 14-3-3γ was dialysis against 25 mM HEPES pH 7.5; made in house; host or cells: E. coli BL21(DE3), pPROEX HTb
Description: Selectivity screening FA, Mypt1_472 peptide. The following applies: 100 μM fragment.
From the text: as §1, §2

The target of test [7] is T7, 14-3-3/ERα complex (Homo sapiens, UniProt P61981).
T7 construct: the full length 14-3-3γ was dialysis against 25 mM HEPES pH 7.5; made in house; host or cells: E. coli BL21(DE3), pPROEX HTb
T7 sequence (P61981 1-247): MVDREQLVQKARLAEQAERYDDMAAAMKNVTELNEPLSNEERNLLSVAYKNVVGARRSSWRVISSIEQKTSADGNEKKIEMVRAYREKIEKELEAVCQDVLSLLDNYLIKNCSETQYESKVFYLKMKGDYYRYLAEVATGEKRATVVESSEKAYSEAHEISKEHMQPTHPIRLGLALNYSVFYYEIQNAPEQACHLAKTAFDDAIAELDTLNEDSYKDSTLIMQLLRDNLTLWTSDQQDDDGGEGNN
Put plainly: Selectivity screening FA, ERα peptide. The conditions noted are these: 100 μM fragment.
From the text: as §1, §2

For test [8], the target named is T8, Raptor/14-3-3γ binary complex (Homo sapiens, UniProt P61981).
T8 construct: the full length 14-3-3γ was dialysis against 25 mM HEPES pH 7.5; made in house; host or cells: E. coli BL21(DE3), pPROEX HTb
Description: Selectivity screening FA, Raptor peptide. The conditions noted are these: 100 μM fragment.
From the text: as §1
Following the importance of the tryptophan for complex stabilization of Pin1_72/14-3-3γ with the benzaldehydes, the influence of phenylalanine (AS160) and tyrosine (Raptor) were investigated (FIGS. 22A-22B). […] Unlike Pin1_72, the C-terminus of AS160 engages Phe+1 in intramolecular hydrophobic contacts with Pro+4 and Pro+5. The +1 phenylalanine likely cannot rearrange to allow fragment binding.
as §2

Test [9] concerns the target T9, Abl1pT735/14-3-3 (Homo sapiens, UniProt P61981).
T9 construct: the full length 14-3-3γ was dialysis against 25 mM HEPES pH 7.5; made in house; host or cells: E. coli BL21(DE3), pPROEX HTb
Description: Selectivity screening FA, Abl1pT735 peptide. The conditions noted are these: 100 μM fragment. As for the experimental part:
(§3) Selectivity screening of covalent fragments. Drugging the hub protein 14-3-3 raises the challenge of selectivity.
(§4) This was investigated by comparing the effect of 13, 27 and 28 on 14-3-3 interaction partners with a leucine (Abl1pT735), isoleucine (p65pS45), or valine (CFTRpS753) at the +1 position.
(§5) Fluorescence Anisotropy (FA) Assays. […] All FA assays were measured in FA buffer (10 mM HEPES pH 7.4, 150 mM NaCl, 0.1% Tween20, 1% BSA) in Corning 384 well plates (black, round bottom, low binding). Plates were incubated overnight prior to anisotropy measurements with the Tecan Infinite 500 plate reader (λexcitation=485 nm, λemission=535 nm).

Test [10] deals with T10, p65pS45/14-3-3 (Homo sapiens, UniProt P61981).
T10 construct: the full length 14-3-3γ was dialysis against 25 mM HEPES pH 7.5; made in house; host or cells: E. coli BL21(DE3), pPROEX HTb
T10 sequence (as listed by the source partner, one chain of several): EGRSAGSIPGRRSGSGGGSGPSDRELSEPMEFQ
Description: Selectivity screening FA, p65pS45 peptide. The conditions noted are these: 100 μM fragment. As for the experimental part: as §3, §4, §5

Test [11] has as its target T11, CFTRpS753/14-3-3 (Homo sapiens, UniProt P61981).
T11 construct: the full length 14-3-3γ was dialysis against 25 mM HEPES pH 7.5; made in house; host or cells: E. coli BL21(DE3), pPROEX HTb
Description: Selectivity screening FA, CFTRpS753 peptide. The following applies: 100 μM fragment. As to the method:
as §3, §4, §5

Test [12] has as its target T12, Pin1_72/14-3-3γ (Homo sapiens, UniProt P61981+Q13526).
T12 construct: the full length 14-3-3γ was dialysis against 25 mM HEPES pH 7.5; made in house; host or cells: E. coli BL21(DE3), pPROEX HTb
Put plainly: FA protein titrations in presence of 100 μM fragment, 13 representative 14-3-3/peptide interactions. The following applies: 14-3-3γ titrations. As to the method: FIGS. 22A-22F. […] FIG. 22A: Radar plot of the SFs determined by FA protein titrations in presence of 100 μM fragment. […] Right: close-up. FIG. 22B: The SF values determined with 14-3-3γ titrations in presence of 100 μM 13, 27 or 28 in FA assays (n=2). FIG. 22C: Structural overlay of the known 14-3-3 binding epitopes used in this study. FIG. 22D: Overlay of the binding pose of 13, 27 and 28 (line representation) with the AS160 binding epitope (PDB: 7NIX). FIG. 22E: Overlay of crystal structures of 13 (2Fo-Fc map at 1 as mesh) binding to the p65_45 (violet sticks, carton)/14-3-3γ complex (PDB: 7NQP) and the CFTR (cyan sticks, cartoon)/14-3-3 complex (PDB: 5D3F, FC-A hidden for clarity). Hydrophobic contacts between 13 and Ile+1 of p65 and Val+1 of CFTR are indicated by transparent spheres.

In test [13] the target is T13, 14-3-3/p65 (Homo sapiens, UniProt P61981).
T13 construct: the full length 14-3-3γ was dialysis against 25 mM HEPES pH 7.5; made in house; host or cells: E. coli BL21(DE3), pPROEX HTb
T13 sequence (as listed by the source partner, one chain of several): as above
Description: Cooperativity analysis of the 14-3-3/p65/28 complex. The following applies: 1 mM compound; saturation not achieved. As for the experimental part: Finally, we performed a cooperativity analysis of the 14-3-3/p65/28 complex to investigate how these structural observations translate to cooperativity. For the 14-3-3/p65/28 complex, saturation of the system was not achieved at concentration ≤1 mM with SF1 mM=37. […] The cooperative interactions within the 14-3-3/Pin1/28 complex are thus significant driving factors for the selective stabilization.

Structures are written as SMILES.

T11 sequence (P13569 747-774 partner limits assumed, one chain of several): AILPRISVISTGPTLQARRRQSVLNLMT

For the molecule `O=Cc1ccc(-n2ccnc2-c2cc(Br)ccc2F)cc1Br` [compound 27, 2-bromo-4-(2-(5-bromo-2-fluorophenyl)-1H-imidazol-1-yl)benzaldehyde], the “cooperativity factor (α-factor)” value in test [1] is “approximately 60”. Also, the “stabilization, C-Raf” value in [2] was “abolishes any stabilizing effect”. Besides, the “stabilization, B-Raf_729” value in test [3] is on record as “no significant stabilization”. Besides, the “stabilization, TBC1D237” value in test [4] is “no significant stabilization”. For the same molecule, the “stabilization, ERRγ_179” value in test [5] is recorded as “no significant stabilization”. The “stabilization, Mypt1_472” value in test [6] was “no significant stabilization”. For the same molecule, the “stabilization, ERα” value in test [7] was “not responsive to fragment stabilization”. In addition, in test [8], the “stabilization of the Raptor/14-3-3γ binary complex” value is on record as 9.5 fold. Besides, the “stabilizing activity, Abl1pT735” value in [9] is recorded as “some stabilizing activity”. Moreover, the “stabilizing activity, p65pS45” value in test [10] was “some stabilizing activity”. Besides, in test [11], the “SF, CFTR” value turned out to be 12.5 and the “stabilizing activity, CFTRpS753” value is “some stabilizing activity”.
In the case of `O=Cc1ccc(-n2ccnc2-c2ccc(F)cc2F)cc1Br` [compound 28, 2-bromo-4-(2-(2,4-difluorophenyl)-1H-imidazol-1-yl)benzaldehyde], the “selectivity of stabilization among 13 14-3-3/peptide interactions” value in test [12] was “selective stabilization of the 14-3-3/Pin1_72 complex”. In addition, in [1], the “concentration necessary to induce a 2-fold increase in PPI stabilization” value stood at 1 µM, the “cooperativity factor (α-factor)” value was 270 and the “stabilization of the Pin1/14-3-3 complex” value is recorded as 270 fold. Besides, the “stabilization, C-Raf” value in [2] is “abolishes any stabilizing effect”. Besides, in test [3], the “stabilization, B-Raf_729” value is reported as “no significant stabilization”. For the same molecule, in test [4], the “stabilization, TBC1D237” value was “no significant stabilization”. Further, the “stabilization, ERRγ_179” value in test [5] is reported as “no significant stabilization”. Also, the “stabilization, Mypt1_472” value in test [6] is “no significant stabilization”. For the same molecule, in test [7], the “stabilization, ERα” value was “not responsive to fragment stabilization”. In addition, the “stabilizing activity, Abl1pT735” value in [9] is recorded as “no significant complex stabilization”. Moreover, the “stabilizing activity, p65pS45” value in [10] is on record as “no significant complex stabilization”. Further, in test [11], the “stabilizing activity, CFTRpS753” value is on record as “no significant complex stabilization”. Besides, the “SF1 mM” value in [13] was determined as 37.
